The assay deals with Histone deacetylase 3/Nuclear receptor corepressor 2 (HDAC3/NCoR2) (Homo sapiens, UniProt O15379+Q9Y618). In words: Inhibition of human C-terminal His-tagged HDAC3 (1 to 428 residues)/human N-terminal GST-tagged NcoR2 (395 to 489 residues) expressed in sf9 cells using p53 (379 to 382 residues) (Arg-His-Lys(Ac)-Lys(Ac)) as substrate by fluorimetric assay.

Structures are written as SMILES.

Among the data in BindingDB's records for doi:10.1021/acs.jmedchem.0c00830 (University of East Anglia, 2020) are IC50 values, retold here.

Broadly, the IC50 is the concentration that gives 50% inhibition. Low values mean greater potency in that assay, high ones weaker potency in that assay.

Sequence of Histone deacetylase 3/Nuclear receptor corepressor 2 (HDAC3/NCoR2) (O15379 whole entry, the tested form may be a part): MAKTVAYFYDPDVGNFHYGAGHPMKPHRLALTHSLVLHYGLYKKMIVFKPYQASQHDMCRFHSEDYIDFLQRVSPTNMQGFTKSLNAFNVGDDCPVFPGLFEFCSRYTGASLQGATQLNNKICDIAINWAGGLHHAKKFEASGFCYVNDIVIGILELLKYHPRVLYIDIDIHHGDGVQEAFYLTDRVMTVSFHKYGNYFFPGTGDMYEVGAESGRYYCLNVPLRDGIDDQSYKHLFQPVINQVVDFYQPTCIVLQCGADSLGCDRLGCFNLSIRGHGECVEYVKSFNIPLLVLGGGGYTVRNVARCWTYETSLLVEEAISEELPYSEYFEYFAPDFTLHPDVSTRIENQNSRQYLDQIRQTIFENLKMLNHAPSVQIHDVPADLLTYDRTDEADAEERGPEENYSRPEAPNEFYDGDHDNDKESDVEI
Sequence of Histone deacetylase 3/Nuclear receptor corepressor 2 (HDAC3/NCoR2) (Q9Y618 whole entry, the tested form may be a part): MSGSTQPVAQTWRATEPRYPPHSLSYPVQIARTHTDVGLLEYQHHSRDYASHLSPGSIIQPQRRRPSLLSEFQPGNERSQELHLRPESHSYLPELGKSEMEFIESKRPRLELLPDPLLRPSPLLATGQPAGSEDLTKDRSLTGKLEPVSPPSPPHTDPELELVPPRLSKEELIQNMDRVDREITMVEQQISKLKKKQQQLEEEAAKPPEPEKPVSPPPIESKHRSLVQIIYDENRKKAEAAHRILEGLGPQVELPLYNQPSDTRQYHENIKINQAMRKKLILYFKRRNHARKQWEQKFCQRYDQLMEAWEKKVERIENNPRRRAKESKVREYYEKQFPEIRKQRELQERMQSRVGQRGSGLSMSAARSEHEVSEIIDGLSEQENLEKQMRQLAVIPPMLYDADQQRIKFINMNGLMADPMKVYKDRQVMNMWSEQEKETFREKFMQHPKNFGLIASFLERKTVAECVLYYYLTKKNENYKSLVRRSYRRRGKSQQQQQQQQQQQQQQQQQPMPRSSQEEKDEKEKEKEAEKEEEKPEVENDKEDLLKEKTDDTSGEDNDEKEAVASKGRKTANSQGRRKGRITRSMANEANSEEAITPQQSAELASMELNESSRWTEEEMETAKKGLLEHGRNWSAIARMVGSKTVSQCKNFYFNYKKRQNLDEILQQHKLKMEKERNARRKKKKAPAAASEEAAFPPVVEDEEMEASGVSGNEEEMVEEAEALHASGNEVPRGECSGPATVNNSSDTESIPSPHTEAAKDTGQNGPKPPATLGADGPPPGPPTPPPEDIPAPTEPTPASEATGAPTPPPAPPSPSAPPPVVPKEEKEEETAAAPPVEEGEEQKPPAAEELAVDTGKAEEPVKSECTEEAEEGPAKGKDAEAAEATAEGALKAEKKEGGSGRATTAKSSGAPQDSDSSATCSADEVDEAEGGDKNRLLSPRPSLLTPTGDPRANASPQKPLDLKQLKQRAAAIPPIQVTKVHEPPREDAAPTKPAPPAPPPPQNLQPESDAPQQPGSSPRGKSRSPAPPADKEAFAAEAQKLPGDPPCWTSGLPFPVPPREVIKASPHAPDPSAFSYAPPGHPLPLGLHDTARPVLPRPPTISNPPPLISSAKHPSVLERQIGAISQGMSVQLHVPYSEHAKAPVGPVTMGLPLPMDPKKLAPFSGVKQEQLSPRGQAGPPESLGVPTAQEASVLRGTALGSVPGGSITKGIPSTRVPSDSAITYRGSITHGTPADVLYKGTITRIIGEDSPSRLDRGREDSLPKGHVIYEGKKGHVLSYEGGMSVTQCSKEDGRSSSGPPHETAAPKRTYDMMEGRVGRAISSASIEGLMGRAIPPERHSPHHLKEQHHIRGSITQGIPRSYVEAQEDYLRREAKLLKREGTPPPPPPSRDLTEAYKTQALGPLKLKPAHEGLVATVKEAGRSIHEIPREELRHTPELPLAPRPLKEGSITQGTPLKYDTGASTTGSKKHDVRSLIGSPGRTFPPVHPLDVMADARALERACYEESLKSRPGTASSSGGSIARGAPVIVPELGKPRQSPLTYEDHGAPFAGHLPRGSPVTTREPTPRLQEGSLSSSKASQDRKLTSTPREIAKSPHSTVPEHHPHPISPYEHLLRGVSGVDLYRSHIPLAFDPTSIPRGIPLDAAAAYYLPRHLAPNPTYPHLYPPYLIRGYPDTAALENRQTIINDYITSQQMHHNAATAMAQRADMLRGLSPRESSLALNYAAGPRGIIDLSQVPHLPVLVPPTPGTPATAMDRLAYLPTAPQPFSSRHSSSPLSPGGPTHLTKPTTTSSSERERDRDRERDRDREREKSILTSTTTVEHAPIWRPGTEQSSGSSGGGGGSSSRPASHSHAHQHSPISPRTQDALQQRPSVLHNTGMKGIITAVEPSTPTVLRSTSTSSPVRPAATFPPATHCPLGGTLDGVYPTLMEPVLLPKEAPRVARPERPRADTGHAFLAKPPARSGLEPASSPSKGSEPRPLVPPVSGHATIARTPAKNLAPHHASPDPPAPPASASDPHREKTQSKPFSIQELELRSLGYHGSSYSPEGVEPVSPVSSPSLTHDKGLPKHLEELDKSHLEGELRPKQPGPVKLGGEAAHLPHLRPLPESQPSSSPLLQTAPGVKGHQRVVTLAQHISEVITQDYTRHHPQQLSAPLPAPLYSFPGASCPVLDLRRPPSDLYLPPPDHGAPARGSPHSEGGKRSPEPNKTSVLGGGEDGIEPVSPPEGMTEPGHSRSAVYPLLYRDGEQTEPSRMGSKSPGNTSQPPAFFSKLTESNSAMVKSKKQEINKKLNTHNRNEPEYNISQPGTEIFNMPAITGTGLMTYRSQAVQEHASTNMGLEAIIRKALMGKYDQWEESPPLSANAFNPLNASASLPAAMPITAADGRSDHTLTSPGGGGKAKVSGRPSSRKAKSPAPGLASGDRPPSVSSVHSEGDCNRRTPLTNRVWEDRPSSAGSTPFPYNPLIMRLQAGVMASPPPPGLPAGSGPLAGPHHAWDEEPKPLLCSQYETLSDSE

The compound `CCCCNNC(=O)c1ccc(Br)cc1` [UF010] registered an IC50 of 60 nM.
